Assay results as given in ChEMBL document CHEMBL1201862, “PubChem BioAssay data set” (2004).
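Exposure lasted 48 hours, with cells grown in 96-well plates and compounds tested at five concentrations. GI50: concentration for 50% inhibition of growth.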 Active and inactive are the calls of the source. Cut-off read from the data, not from the text of the source: active = GI50 up to about 1.1 µM and inactive = higher. Where a SMILES comes first, the peptide text is derived from it. [ ]: non-standard residue; d: D form. The star is where a group is joined. Cbz = O=C(OCc1ccccc1)*; Aib = CC(C)(N)C(=O)O

Assays:
Assay in all cases: DTP human tumour cell line panel, 48 h
[1] = test system: HT-29
[2] = test system: HCT-116
[3] = test system: SN12C
[4] = test system: OVCAR-8
[5] = test system: KM12
[6] = test system: CAKI-1
[7] = test system: HCT-15
[8] = test system: NCI-H522
[9] = test system: K562
[10] = test system: SK-MEL-28
[11] = test system: M14
[12] = test system: CCRF-CEM
[13] = test system: A498
[14] = test system: RXF 393
[15] = test system: MOLT-4
[16] = test system: SF-295
[17] = test system: MDA-N
[18] = test system: MCF7
[19] = test system: UACC-62
[20] = test system: RPMI-8226

`Cc1cc(-c2ccccc2)nc2oc(=O)n(C)c12` was tested, and the GI50 [1] was > 100 µM (inactive), the GI50 [2] was 75 µM (inactive) and the GI50 [3] was 71.8 µM (inactive). The GI50 [4] was 90.4 µM (inactive), the GI50 [5] was > 100 µM (inactive) and the GI50 [6] was 49.1 µM (inactive). The GI50 [7] was greater than 100 µM, the GI50 [8] was > 100 µM (inactive) and the GI50 [9] was > 100 µM (inactive). For the same compound, the GI50 [10] was > 100 µM (inactive), the GI50 [11] was > 100 µM (inactive) and the GI50 [12] was > 100 µM (inactive). The GI50 [13] was > 100 µM (inactive), the GI50 [14] was 28.1 µM (inactive) and the GI50 [15] was > 100 µM (inactive). The GI50 [16] was 39.5 µM (inactive), the GI50 [17] was > 100 µM (inactive) and the GI50 [18] was > 100 µM (inactive). The GI50 [19] was > 100 µM (inactive).

With `O=C(Nc1cccc(F)c1)c1cc2ccc(O)cc2o/c1=N\c1ccccc1F` the GI50 [1] was 21.2 µM (inactive), the GI50 [2] was 4.03 µM (inactive) and the GI50 [3] was 5.26 µM (inactive). The GI50 [4] was 2.51 µM (inactive), the GI50 [5] was 3.75 µM (inactive) and the GI50 [6] was 4.39 µM (inactive). For the same compound, the GI50 [7] was 2.88 µM, the GI50 [8] was 2.09 µM (inactive) and the GI50 [9] was 2.01 µM (inactive). For the same compound, the GI50 [10] was 4.05 µM (inactive), the GI50 [11] was 5.32 µM (inactive) and the GI50 [20] was 1.69 µM (inactive). The GI50 [12] was 2.47 µM (inactive), the GI50 [13] was 16.1 µM (inactive) and the GI50 [15] was 2.29 µM (inactive). The GI50 [16] was 8.39 µM (inactive), the GI50 [17] was 4.82 µM (inactive) and the GI50 [18] was 3.33 µM (inactive). For the same compound, the GI50 [19] was 4.38 µM (inactive).

In the case of `S=C1SC(c2ccc(Cl)cc2)(c2ccc(Cl)cc2)c2ccccc21`, the GI50 [1] is reported as 28 µM (inactive), the GI50 [2] is reported as 24.7 µM (inactive) and the GI50 [3] is reported as > 100 µM (inactive). For the same compound, the GI50 [4] was > 100 µM (inactive), the GI50 [5] was 40.3 µM (inactive) and the GI50 [6] was 53.8 µM (inactive). The GI50 [7] was 65 µM, the GI50 [8] was 91.8 µM (inactive) and the GI50 [9] was 64.9 µM (inactive). For the same compound, the GI50 [10] was 67.8 µM (inactive), the GI50 [11] was 79.4 µM (inactive) and the GI50 [12] was 43.7 µM (inactive). The GI50 [13] was 81.8 µM (inactive), the GI50 [14] was 56.9 µM (inactive) and the GI50 [15] was 37.2 µM (inactive). The GI50 [16] was 53.7 µM (inactive), the GI50 [17] was 62.2 µM (inactive) and the GI50 [18] was 38.5 µM (inactive). For the same compound, the GI50 [19] was > 100 µM (inactive).

`CC(=O)OCC1C(C(C)OC(C)=O)CCC2C1CCC1(C)C(OC(C)=O)CCC21` (stereo not drawn) was tested, and the GI50 [1] was 16 µM (inactive), the GI50 [2] was 15.8 µM (inactive) and the GI50 [3] was 18 µM (inactive). The GI50 [4] was 19.7 µM (inactive), the GI50 [5] was 15.7 µM (inactive) and the GI50 [6] was 37.4 µM (inactive). For the same compound, the GI50 [7] was 19.7 µM, the GI50 [8] was 20.6 µM (inactive) and the GI50 [9] was 11.2 µM (inactive). The GI50 [10] was 15.7 µM (inactive), the GI50 [11] was 17.1 µM (inactive) and the GI50 [20] was 16.5 µM (inactive). The GI50 [12] was 19.8 µM (inactive), the GI50 [13] was 19.7 µM (inactive) and the GI50 [15] was 16.6 µM (inactive). The GI50 [16] was 21 µM (inactive), the GI50 [17] was 18.6 µM (inactive) and the GI50 [18] was 19.1 µM (inactive). The GI50 [19] was 12.9 µM (inactive).

With `c1cncc(CC2(c3cc4ccccc4[nH]3)OCCO2)c1` the GI50 [1] was > 100 µM (inactive), the GI50 [2] was > 100 µM (inactive) and the GI50 [3] was > 100 µM (inactive). The GI50 [4] was > 100 µM (inactive), the GI50 [5] was > 100 µM (inactive) and the GI50 [6] was > 100 µM (inactive). The GI50 [7] was greater than 100 µM, the GI50 [8] was > 100 µM (inactive) and the GI50 [10] was > 100 µM (inactive). For the same compound, the GI50 [12] was > 100 µM (inactive), the GI50 [13] was > 100 µM (inactive) and the GI50 [16] was > 100 µM (inactive). For the same compound, the GI50 [17] was > 100 µM (inactive), the GI50 [18] was > 100 µM (inactive) and the GI50 [19] was > 100 µM (inactive).

With `C=CCNC(=O)/C(Cc1cc(Br)c(OC)c(Br)c1O)=N\O` the GI50 [1] was 15 µM (inactive), the GI50 [2] was 3.01 µM (inactive) and the GI50 [4] was 4.65 µM (inactive). For the same compound, the GI50 [5] was 2.77 µM (inactive), the GI50 [6] was 5.18 µM (inactive) and the GI50 [7] was 2.57 µM. The GI50 [8] was 1.78 µM (inactive), the GI50 [9] was 2.37 µM (inactive) and the GI50 [10] was 3.53 µM (inactive). The GI50 [11] was 4.22 µM (inactive), the GI50 [20] was 4.23 µM (inactive) and the GI50 [13] was 10.1 µM (inactive). For the same compound, the GI50 [15] was 4.76 µM (inactive), the GI50 [16] was 3.64 µM (inactive) and the GI50 [17] was 0.334 µM (active). For the same compound, the GI50 [18] was 4.17 µM (inactive) and the GI50 [19] was 8.75 µM (inactive).

In the case of `O=S(=O)(N1CCCCN(S(=O)(=O)C(F)(F)F)CCCN(S(=O)(=O)C(F)(F)F)CCCN(S(=O)(=O)C(F)(F)F)CCCCN(S(=O)(=O)C(F)(F)F)CCCN(S(=O)(=O)C(F)(F)F)CCC1)C(F)(F)F`, the GI50 [1] is reported as > 100 µM (inactive), the GI50 [2] is reported as 87.1 µM (inactive) and the GI50 [3] is reported as 35.8 µM (inactive). For the same compound, the GI50 [4] was 36.4 µM (inactive), the GI50 [5] was > 100 µM (inactive) and the GI50 [6] was 37.2 µM (inactive). For the same compound, the GI50 [7] was 68.4 µM, the GI50 [8] was 35.2 µM (inactive) and the GI50 [9] was > 100 µM (inactive). For the same compound, the GI50 [10] was > 100 µM (inactive), the GI50 [11] was 63.7 µM (inactive) and the GI50 [12] was > 100 µM (inactive). The GI50 [13] was 52.6 µM (inactive), the GI50 [14] was 28.6 µM (inactive) and the GI50 [15] was > 100 µM (inactive). For the same compound, the GI50 [16] was 22.9 µM (inactive), the GI50 [17] was > 100 µM (inactive) and the GI50 [18] was > 100 µM (inactive). For the same compound, the GI50 [19] was 64.6 µM (inactive).

`O=C(/C=C/c1cccc(Br)c1)c1cccs1` was tested, and the GI50 [1] was 11.5 µM (inactive), the GI50 [2] was 5.47 µM (inactive) and the GI50 [3] was 14.7 µM (inactive). For the same compound, the GI50 [4] was 17.7 µM (inactive), the GI50 [5] was 13.7 µM (inactive) and the GI50 [6] was 16.1 µM (inactive). For the same compound, the GI50 [7] was 14.6 µM, the GI50 [9] was 3.13 µM (inactive) and the GI50 [10] was 18.1 µM (inactive). The GI50 [11] was 25.1 µM (inactive), the GI50 [20] was 2.09 µM (inactive) and the GI50 [12] was 4.23 µM (inactive). The GI50 [13] was 16.5 µM (inactive), the GI50 [15] was 15.3 µM (inactive) and the GI50 [16] was 16.6 µM (inactive). The GI50 [17] was 10.3 µM (inactive), the GI50 [18] was 3.44 µM (inactive) and the GI50 [19] was 16.2 µM (inactive).

`C[C@H](CS)C(=O)N1c2ccccc2C[C@H]1C(=O)O` was tested, and the GI50 [1] was 97.1 µM (inactive), the GI50 [2] was > 100 µM (inactive) and the GI50 [3] was > 100 µM (inactive). The GI50 [4] was > 100 µM (inactive), the GI50 [5] was > 100 µM (inactive) and the GI50 [6] was > 100 µM (inactive). The GI50 [7] was greater than 100 µM, the GI50 [8] was > 100 µM (inactive) and the GI50 [9] was > 100 µM (inactive). The GI50 [10] was > 100 µM (inactive), the GI50 [12] was > 100 µM (inactive) and the GI50 [13] was > 100 µM (inactive). For the same compound, the GI50 [15] was > 100 µM (inactive), the GI50 [16] was > 100 µM (inactive) and the GI50 [17] was > 100 µM (inactive). For the same compound, the GI50 [18] was > 100 µM (inactive) and the GI50 [19] was > 100 µM (inactive).

In the case of `CC(C)(NC(=O)C(C)(C)NC(=O)OCc1ccccc1)C(=O)O` (Cbz-[Aib]-[Aib]-OH), the GI50 [1] is reported as > 100 µM (inactive), the GI50 [2] is reported as > 100 µM (inactive) and the GI50 [3] is reported as > 100 µM (inactive). The GI50 [4] was > 100 µM (inactive), the GI50 [5] was > 100 µM (inactive) and the GI50 [6] was > 100 µM (inactive). For the same compound, the GI50 [7] was greater than 100 µM, the GI50 [8] was > 100 µM (inactive) and the GI50 [9] was > 100 µM (inactive). For the same compound, the GI50 [10] was > 100 µM (inactive), the GI50 [11] was > 100 µM (inactive) and the GI50 [20] was > 100 µM (inactive). For the same compound, the GI50 [12] was > 100 µM (inactive), the GI50 [13] was > 100 µM (inactive) and the GI50 [15] was > 100 µM (inactive). For the same compound, the GI50 [16] was > 100 µM (inactive), the GI50 [17] was > 100 µM (inactive) and the GI50 [18] was > 100 µM (inactive). For the same compound, the GI50 [19] was > 100 µM (inactive).

In the case of `CC(=O)O[C@H]1C[C@H](O[C@H]2[C@@H](O)C[C@H](O[C@H]3[C@@H](O)C[C@H](O[C@H]4CC[C@@]5(C)[C@H](CC[C@@H]6[C@@H]5C[C@@H](O)[C@]5(C)[C@@H](C7=CC(=O)OC7)CC[C@]65O)C4)O[C@@H]3C)O[C@@H]2C)O[C@H](C)[C@H]1O[C@@H]1O[C@H](CO)[C@@H](O)[C@H](O)[C@H]1O` [LANATOSIDE C], the GI50 [1] is reported as 0.048 µM (active), the GI50 [2] is reported as 0.0324 µM (active) and the GI50 [4] is reported as 0.0612 µM (active). The GI50 [5] was 0.104 µM (active), the GI50 [6] was 0.0336 µM (active) and the GI50 [7] was 0.0409 µM. The GI50 [8] was 0.0137 µM (active), the GI50 [9] was 0.04 µM (active) and the GI50 [10] was 0.303 µM (active). The GI50 [11] was 0.147 µM (active), the GI50 [20] was 0.0368 µM (active) and the GI50 [13] was 0.0897 µM (active). The GI50 [15] was 0.018 µM (active), the GI50 [16] was 0.0426 µM (active) and the GI50 [17] was 0.156 µM (active). The GI50 [18] was 0.051 µM (active) and the GI50 [19] was 0.21 µM (active).
